Our source for the IC50 values is US8173654B2, “Triazolopyridazine compounds” (Janssen Pharmaceutica N.V., priority 2005, dated 2012).

Structures are written as SMILES. Some results are limits rather than exact numbers.

Assay [1] has as its target T1, c-Met (Homo sapiens, UniProt P08581). The assay can be described thus: Cell based ELISA assay for HGF stimulated c-Met phosphorylation in S114 cells. On the set-up: expressed in transfected cells; host or cells: S114 (murine NIH 3T3 derived). As to conditions: read-out: c-Met Cell ELISA IC-50.
Target sequence in this assay (P08581 25-1390): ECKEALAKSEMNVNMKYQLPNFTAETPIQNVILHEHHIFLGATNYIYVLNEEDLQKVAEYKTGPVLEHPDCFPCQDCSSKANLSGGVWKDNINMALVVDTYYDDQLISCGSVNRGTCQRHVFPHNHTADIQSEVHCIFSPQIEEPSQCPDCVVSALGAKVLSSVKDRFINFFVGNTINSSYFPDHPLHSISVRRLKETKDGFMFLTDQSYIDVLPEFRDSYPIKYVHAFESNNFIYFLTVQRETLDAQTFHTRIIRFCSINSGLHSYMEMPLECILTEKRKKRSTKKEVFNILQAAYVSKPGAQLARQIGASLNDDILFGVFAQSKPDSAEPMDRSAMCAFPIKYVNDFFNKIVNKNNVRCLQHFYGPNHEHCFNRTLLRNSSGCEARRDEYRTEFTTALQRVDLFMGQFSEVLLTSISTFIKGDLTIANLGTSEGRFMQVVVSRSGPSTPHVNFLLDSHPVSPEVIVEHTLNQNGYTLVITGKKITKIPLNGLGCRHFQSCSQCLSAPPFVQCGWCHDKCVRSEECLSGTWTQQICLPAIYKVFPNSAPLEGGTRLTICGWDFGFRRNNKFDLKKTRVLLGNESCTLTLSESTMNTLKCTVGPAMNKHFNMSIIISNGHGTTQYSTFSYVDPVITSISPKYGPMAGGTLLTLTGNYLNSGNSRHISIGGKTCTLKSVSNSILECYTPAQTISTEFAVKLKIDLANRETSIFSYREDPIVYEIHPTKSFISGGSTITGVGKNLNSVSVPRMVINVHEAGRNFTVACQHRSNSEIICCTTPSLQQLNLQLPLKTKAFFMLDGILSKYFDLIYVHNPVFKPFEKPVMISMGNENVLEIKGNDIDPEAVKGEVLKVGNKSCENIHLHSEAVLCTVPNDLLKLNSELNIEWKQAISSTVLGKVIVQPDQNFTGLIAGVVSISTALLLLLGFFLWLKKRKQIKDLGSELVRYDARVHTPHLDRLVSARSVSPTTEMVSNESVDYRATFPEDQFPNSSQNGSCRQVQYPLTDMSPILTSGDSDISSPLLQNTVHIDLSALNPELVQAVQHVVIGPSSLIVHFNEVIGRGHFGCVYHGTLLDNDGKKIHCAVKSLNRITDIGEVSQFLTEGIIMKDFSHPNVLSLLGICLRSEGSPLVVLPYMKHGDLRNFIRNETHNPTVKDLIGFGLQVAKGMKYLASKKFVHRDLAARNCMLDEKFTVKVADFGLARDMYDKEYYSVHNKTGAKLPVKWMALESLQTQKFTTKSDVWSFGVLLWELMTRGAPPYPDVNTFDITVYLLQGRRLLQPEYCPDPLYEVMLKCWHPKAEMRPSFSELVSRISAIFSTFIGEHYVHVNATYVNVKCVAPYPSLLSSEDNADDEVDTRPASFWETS
Assay [2] concerns the target T1, c-Met. Description: Delfia autophosphorylation kinase assay on the c-Met. It counts as biochemical. On the set-up: The purified His6 tagged cytoplasmic domain of c-Met was diluted to a concentration of 500 ng/ml; host or cells: Sf9 insect cells (baculovirus, pFastBacHTa). As to conditions: His6 tagged cytoplasmic domain of c-Met, 1 μM ATP; read-out: cMet Delfia autophos IC-50. The method, boiled down:
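Time-resolved fluorescence tracked autophosphorylation of the His6-tagged c-Met cytoplasmic domain, dispensed at 500 ng/ml onto nickel-chelate plates. Reaction buffer held 1 μM ATP, 10 mM MgCl2, vanadate and DTT at pH 8.0, for 1 h at room temperature.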
Target sequence in this assay (P08581 956-1390 limits assumed): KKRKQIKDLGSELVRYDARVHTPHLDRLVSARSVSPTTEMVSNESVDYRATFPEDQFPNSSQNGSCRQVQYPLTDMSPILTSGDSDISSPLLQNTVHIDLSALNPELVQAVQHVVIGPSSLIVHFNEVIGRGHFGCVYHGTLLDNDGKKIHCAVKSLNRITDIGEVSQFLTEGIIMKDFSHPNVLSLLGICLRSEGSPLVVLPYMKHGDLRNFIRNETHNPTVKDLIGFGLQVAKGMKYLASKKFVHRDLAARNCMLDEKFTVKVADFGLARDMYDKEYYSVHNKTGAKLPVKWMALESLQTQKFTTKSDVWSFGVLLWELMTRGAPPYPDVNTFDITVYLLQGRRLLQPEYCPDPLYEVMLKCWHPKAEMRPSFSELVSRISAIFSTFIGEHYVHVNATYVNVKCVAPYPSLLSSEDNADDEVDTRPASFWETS

`O=c1[nH]cnc2ccc(Cc3nnc4ccc(-c5cccnc5)nn34)cc12` [Example 69, 6-(6-Pyridin-3-yl-[1,2,4]triazolo[4,3-b]pyridazin-3-ylmethyl)-3H-quinazolin-4-one]: the figures for the IC50 on c-Met [1] and on c-Met [2] were > 1000 nM and 17 nM, respectively.

Turning to `Cn1cc(-c2ccc3nnc(Cc4ccc5ncncc5c4)n3n2)cn1` [Example 70, 6-[6-(1-Methyl-1H-pyrazol-4-yl)-[1,2,4]triazolo[4,3-b]pyridazin-3-ylmethyl]-quinazoline], the IC50 worked out at 140 nM at c-Met [1] and 25 nM on c-Met [2].

In the case of `Cn1cc(-c2ccc3nnc(Cc4ccc5nccnc5c4)n3n2)cn1` [Example 71, 6-[6-(1-Methyl-1H-pyrazol-4-yl)-[1,2,4]triazolo[4,3-b]pyridazin-3-ylmethyl]-quinoxaline], the IC50 on c-Met [1] came out at 99 nM; on c-Met [2], 20 nM.

On to `c1cnc2ccc(Cc3nnc4ccc(-c5cc6ccccc6s5)nn34)cc2c1` [Example 72, 6-(6-Benzo[b]thiophen-2-yl-[1,2,4]triazolo[4,3-b]pyridazin-3-ylmethyl)-quinoline], for which the IC50 at c-Met [1] was found to be 0.2 nM; at c-Met [2], 0.3 nM.

With `[O-][n+]1cccc2cc(Cc3nnc4ccc(-c5cn[nH]c5)nn34)ccc21` [Example 73, 6-[6-(1H-Pyrazol-4-yl)-[1,2,4]triazolo[4,3-b]pyridazin-3-ylmethyl]-quinolin-1-ol], the IC50 came out at 0.5 nM on c-Met [1] and 0.1 nM on c-Met [2].

`OCCCn1cc(-c2ccc3nnc(Cc4ccc5ncccc5c4)n3n2)cn1` [Example 75, 3-[4(3-Quinolin-6-ylmethyl-[1,2,4]triazolo[4,3-b]pyridazin-6-yl)-pyrazol-1-yl]-propan-1-ol]: the IC50 at c-Met [1] was found to be 60 nM; on c-Met [2], 0.8 nM.

Turning to `c1cnc2ccc(Cc3nnc4ccc(-c5cn[nH]c5)nn34)cc2c1` [Example 76, 6-[6-(1H-Pyrazol-4-yl)-[1,2,4]triazolo[4,3-b]pyridazin-3-ylmethyl]-quinoline], the results for the IC50 on c-Met [1] and at c-Met [2] were 180 nM and 4 nM, respectively.

`Clc1ccc(-c2ccc3nnc(Cc4ccc5ncccc5c4)n3n2)s1` [Example 77]: the IC50 worked out at 2 nM on c-Met [1] and 1.5 nM on c-Met [2].

On to `Cc1nc2ccc(-c3ccc4nnc(Cc5ccc6ncccc6c5)n4n3)cc2[nH]1` [Example 79, 6-[6-(2-Methyl-3H-benzoimidazol-5-yl)-[1,2,4]triazolo[4,3-b]pyridazin-3-ylmethyl]-quinoline], for which the IC50 on c-Met [1] amounted to 3300 nM; on c-Met [2], 30 nM.

Take `Cn1ccc2cc(-c3ccc4nnc(Cc5ccc6ncccc6c5)n4n3)ccc21` [Example 85, 6-[6-(1-Methyl-1H-indol-5-yl)-[1,2,4]triazolo[4,3-b]pyridazin-3-ylmethyl]-quinoline]: the figures for the IC50 at c-Met [1] and on c-Met [2] were 260 nM and 53 nM, respectively.

Take `Cc1cc(-c2ccc3nnc(Cc4ccc5ncccc5c4)n3n2)ccn1` [Example 87, 6-[6-(2-Methyl-pyridin-4-yl)-[1,2,4]triazolo[4,3-b]pyridazin-3-ylmethyl]-quinoline]: the figures for the IC50 at c-Met [1] and at c-Met [2] were 4 nM and 0.6 nM, respectively.

With `Nc1ccc(-c2ccc3nnc(Cc4ccc5ncccc5c4)n3n2)cn1` [Example 88, 5-(3-Quinolin-6-ylmethyl-[1,2,4]triazolo[4,3-b]pyridazin-6-yl)-pyridin-2-ylamine], the IC50 on c-Met [1] is 50 nM; on c-Met [2], 2 nM.

Consider `COc1ccc(-c2ccc3nnc(Cc4ccc5ncccc5c4)n3n2)cn1` [Example 89, 6-[6-(6-Methoxy-pyridin-3-yl)-[1,2,4]triazolo[4,3-b]pyridazin-3-ylmethyl]-quinoline], for which the IC50 was found to be 230 nM at c-Met [1] and 4 nM at c-Met [2].

Regarding `O=c1ccc(-c2ccc3nnc(Cc4ccc5ncccc5c4)n3n2)c[nH]1` [Example 90, 5-(3-Quinolin-6-ylmethyl-[1,2,4]triazolo[4,3-b]pyridazin-6-yl)-1H-pyridin-2-one], the IC50 is 540 nM at c-Met [1] and 3 nM on c-Met [2].

Turning to `Cc1nc2ccc(Cc3nnc4ccc(-c5cccnc5)nn34)cc2s1` [Example 92, 3-(2-Methyl-benzothiazol-6-ylmethyl)-6-pyridin-3-yl-[1,2,4]triazolo[4,3-b]pyridazine], the IC50 at c-Met [1] stood at 10 nM; on c-Met [2], 4 nM.

In the case of `Cn1cc(-c2ccc3nnc(Cc4ccc5nc(N)sc5c4)n3n2)cn1` [Example 93, 6-[6-(1-Methyl-1H-pyrazol-4-yl)-[1,2,4]triazolo[4,3-b]pyridazin-3-ylmethyl]-benzothiazol-2-ylamine], the IC50 came to 130 nM at c-Met [1] and 4 nM on c-Met [2].

In the case of `CN(C)c1nc2ccc(Cc3nnc4ccc(-c5cnn(C)c5)nn34)cc2s1` [Example 94, Dimethyl-{6-[6-(1-methyl-1H-pyrazol-4-yl)-[1,2,4]triazolo[4,3-b]pyridazin-3-ylmethyl]-benzothiazol-2-yl}-amine], the IC50 was 640 nM on c-Met [1] and 30 nM on c-Met [2].

Consider `Clc1cc(-c2ccc3nnc(Cc4ccc5ncccc5c4)n3n2)ccn1` [Example 95, 6-[6-(2-Chloro-pyridin-4-yl)-[1,2,4]triazolo[4,3-b]pyridazin-3-ylmethyl]-quinoline], for which the IC50 was determined as 9 nM on c-Met [1] and 1 nM at c-Met [2].

Turning to `N#Cc1ccc(-c2ccc3nnc(Cc4ccc5ncccc5c4)n3n2)cn1` [Example 96, 5-(3-Quinolin-6-ylmethyl-[1,2,4]triazolo[4,3-b]pyridazin-6-yl)-pyridine-2-carbonitrile], the IC50 at c-Met [1] turned out to be 160 nM; on c-Met [2], 12 nM.

In the case of `C#Cc1cc(-c2ccc3nnc(C(F)(F)c4ccc5ncccc5c4)n3n2)ccn1` [Example 100, 6-{[6-(2-Ethynyl-pyridin-4-yl)-[1,2,4]triazolo[4,3-b]pyridazin-3-yl]-difluoro-methyl}-quinoline], the IC50 at c-Met [1] was found to be 140 nM; at c-Met [2], 5 nM.

Take `FC(F)(c1ccc2ncccc2c1)c1nnc2ccc(-c3ccnc(Cl)c3)nn12` [Example 100b, 6-{[6-(2-Chloro-pyridin-4-yl)-[1,2,4]triazolo[4,3-b]pyridazin-3-yl]-difluoro-methyl}-quinoline]: the IC50 at c-Met [1] amounted to 34 nM; at c-Met [2], 2 nM.

Consider `N#Cc1cc(-c2ccc3nnc(C(F)(F)c4ccc5ncccc5c4)n3n2)ccn1` [Example 101, 4-[3-(Difluoro-quinolin-6-yl-methyl)-[1,2,4]triazolo[4,3-b]pyridazin-6-yl]-pyridine-2-carbonitrile], for which the IC50 on c-Met [1] is 120 nM; on c-Met [2], 1 nM.

Turning to `CN1CCN(C(=O)c2ccc(-c3ccc4nnc(C(F)(F)c5ccc6occc6c5)n4n3)s2)CC1` [Example 102, {5-[3-(Benzofuran-5-yl-difluoro-methyl)-[1,2,4]triazolo[4,3-b]pyridazin-6-yl]-thiophen-2-yl}-(4-methyl-piperazin-1-yl)-methanone], the figures for the IC50 at c-Met [1] and at c-Met [2] were 79 nM and 3 nM, respectively.

For the molecule `CN1CCN(C(=O)c2ccc(-c3ccc4nnc(C(F)(F)c5ccc6c(c5)CCO6)n4n3)s2)CC1` [Example 103, (5-{3-[(2,3-Dihydro-benzofuran-5-yl)-difluoro-methyl]-[1,2,4]triazolo[4,3-b]pyridazin-6-yl}-thiophen-2-yl)-(4-methyl-piperazin-1-yl)-methanone], the results for the IC50 on c-Met [1] and on c-Met [2] were 210 nM and 4 nM, respectively.
